Source: paper PMC4783263 (Molecular pharmaceutics, 2016)
pIC50: −log10 of the molar value. Values after ≈ are worked out from the molar mass of the structure shown. Where two headings read alike, the source gives them in different places. One block for each molecule: values may come before it.

What was measured:
[1] = tested on: Salmonella typhimurium TA100; assay: Ames test; conditions: TA 100, −S9, 1.5 µg/plate
[2] = tested on: Salmonella typhimurium TA1535; assay: Ames test; conditions: TA 1535, −S9, 1.5 µg/plate
[3] = cited from earlier work
SK-OV-3 cells = conditions: read-out: IC50 on SK-OV-3 cells; ABZ formulated in ethanol; cited from earlier work
[4] = tested on: OVCAR-3 (human ovarian adenocarcinoma); conditions: 150 mg/kg of ABZ 3 times a week for 4 weeks through IP; cited from earlier work
glioblastoma multiforme = conditions: daily oral doses (50 and 150 mg/kg) of ABZ tablets mixed with 50% sesame oil; cited from earlier work
[5] = tested on: SKHEP-1 (human liver adenocarcinoma) xenografts; conditions: ABZ in sesame oil, xenografts on the flank of mice; cited from earlier work
[6] = mice, repeated oral dosing of 30–40 mg/kg/day for 4–90 days; cited from earlier work
[7] = in vivo; cited from earlier work
[8] = parameters: species or system Swiss Webster mice; conditions: mouse, in vivo; for AUC / Cmax / tmax: 3.2 mg/kg

SMILES: [N-]=[N+]=[N-].[Na+] [Sodium azide, Sodium Azide, reference compound]
revertant colonies, positive control [1]: Sodium azide 167 ± 34 colonies | revertant colonies, positive control ([1]; listed as sodium azide): 167 colonies | revertant colonies, positive control [2]: Sodium azide 232 ± 6 colonies | revertant colonies, positive control ([2]; listed as sodium azide): 232 colonies

SMILES: O=C1N2CN3C(=O)N4CN5C(=O)N6CN7C(=O)N8CN9C(=O)N%10CN%11C(=O)N%12CN%13C(=O)N%14CN1C1C2N2CN%15C(=O)N(CN%16C(=O)N(CN%17C(=O)N(CN%18C(=O)N(CN%19C(=O)N(CN%20C(=O)N(CN1C2=O)C%14C%13%20)C%12C%11%19)C%10C9%18)C8C7%17)C6C5%16)C4C3%15 (stereo not shown) [CB[7]]
solubility in pure water ([3]; reported by Kim): 20 to 30 mM | solubility in pure water ([3]; reported by Nau): 5 mM (≈ 5.81 mg/mL)

SMILES: CCCSc1ccc2nc(NC(=O)OC)[nH]c2c1 [ABZ, Albendazole]
pIC50 (SK-OV-3 cells): 5.41 | malignant ascites (in words) [4]: suppression of malignant ascites was observed | mouse survival (in words) (glioblastoma multiforme): moderate improvements in mouse survival | daily oral dose required to see an antitumor effect [5]: 300 mg/kg | toxicity (in words) [6]: no significant signs of toxicity

SMILES: O=C(O)CCSC[C@H]1O[C@@H]2O[C@H]3[C@H](O)[C@@H](O)[C@@H](O[C@H]4[C@H](O)[C@@H](O)[C@@H](O[C@H]5[C@H](O)[C@@H](O)[C@@H](O[C@H]6[C@H](O)[C@@H](O)[C@@H](O[C@H]7[C@H](O)[C@@H](O)[C@@H](O[C@H]8[C@H](O)[C@@H](O)[C@@H](O[C@H]9[C@H](O)[C@@H](O)[C@@H](O[C@H]1[C@H](O)[C@H]2O)O[C@@H]9CSCCC(=O)O)O[C@@H]8CSCCC(=O)O)O[C@@H]7CSCCC(=O)O)O[C@@H]6CSCCC(=O)O)O[C@@H]5CSCCC(=O)O)O[C@@H]4CSCCC(=O)O)O[C@@H]3CSCCC(=O)O [sugammadex]
effect on QT interval (in words) [7]: no relevant effects of the compound on QT interval

Absolute Bioavailability [8]: 81% | AUC ([8]; ip): 2380 ng·h/mL | Cmax ([8]; ip): 410 ± 70 ng/mL | tmax ([8]; ip): 2 h | AUC ([8]; iv): 2940 ng·h/mL | Cmax ([8]; iv): 500 ± 90 ng/mL | tmax ([8]; iv): 2 h
SMILES: CCCS(=O)(=O)c1ccc2nc(NC(=O)OC)[nH]c2c1 [ABZSO2, Albendazole sulfone]
